Measured values from US11572354B2, “Inhibitor of indoleamine 2,3-dioxygenase-1 and methods of manufacture and use thereof” (UNIVERSITY HEALTH NETWORK, priority 2018, dated 2023).
Like-named read-outs stand apart in the source and are kept apart here. Each block holds one compound with its values, some of them ahead of it.

Key:
[1] = biological target: T1, human IDO1 (Homo sapiens (Human), UniProt P14902); assay: IDO1 enzymatic inhibition assay; format: biochemical
[2] = biological target: T1, human IDO1; assay: IDO1 inhibition in HEK293/IDO1 transfected cells; format: cell-based; conditions: HEK293/TRIPZ-IDO1 cells
[3] = biological target: TDO2 (Homo sapiens, UniProt P48775); assay: TDO2 enzymatic inhibition assay; format: biochemical; conditions: 500 μM L-Tryptophan, means N≥3; read-out: TDO IC50
[4] = Pharmacokinetics studies in mice (plasma and brain concentration); format: in vivo; conditions: for Kp at 0.5 h / Kp at 2 h: brain/plasma
Experimental: In order to assess the pharmacokinetics of the IDO1 inhibitors of the present application, two inhibitors were administered to mice at 20 mg/kg via PO (G29), or IP (G28). For a preliminary pharmacokinetic profile, three animals were sacrificed per time point at 30 minutes and two hours post-dose. For a full pharmacokinetic profile, three animals were sacrificed per time point at 15 minute, 30 minutes, 1, 2, 4, 6, 8, and 24 hours post-dose.
Blood samples were collected via cardiac puncture, the mice were perfused with phosphate buffered saline (PBS) and the brains were collected. The blood and brain samples were protein precipitated with ice-cold acetonitrile and the concentration of the test compound in the resulting supernatant was quantified using LC/MS/MS. For the full pharmacokinetic profile, the parameters were computed using the “PK” package with the R statistical computing software using a non-compartmental analysis.

[5] = Tissue protein binding (micro-equilibrium dialysis); format: in vitro ADME, mice; conditions: 6 hours at 37° C.
[6] = recombinant human IDO1, 200 μM L-Tryptophan, means N≥3
[7] = 24 h after doxycycline induction, means N≥3

T1 sequence (P14902 whole entry): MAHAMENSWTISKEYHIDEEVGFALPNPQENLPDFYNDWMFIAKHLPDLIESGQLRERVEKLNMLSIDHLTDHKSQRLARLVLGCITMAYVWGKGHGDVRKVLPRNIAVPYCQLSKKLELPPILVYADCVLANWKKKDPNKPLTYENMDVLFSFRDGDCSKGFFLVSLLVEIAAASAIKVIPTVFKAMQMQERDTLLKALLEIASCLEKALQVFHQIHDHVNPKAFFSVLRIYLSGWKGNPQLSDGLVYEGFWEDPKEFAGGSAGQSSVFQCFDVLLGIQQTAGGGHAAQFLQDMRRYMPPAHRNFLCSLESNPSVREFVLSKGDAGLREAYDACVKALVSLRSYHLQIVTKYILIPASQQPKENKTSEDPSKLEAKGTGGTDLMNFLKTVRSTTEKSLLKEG
TDO2, sequence (P48775 whole entry, looked up): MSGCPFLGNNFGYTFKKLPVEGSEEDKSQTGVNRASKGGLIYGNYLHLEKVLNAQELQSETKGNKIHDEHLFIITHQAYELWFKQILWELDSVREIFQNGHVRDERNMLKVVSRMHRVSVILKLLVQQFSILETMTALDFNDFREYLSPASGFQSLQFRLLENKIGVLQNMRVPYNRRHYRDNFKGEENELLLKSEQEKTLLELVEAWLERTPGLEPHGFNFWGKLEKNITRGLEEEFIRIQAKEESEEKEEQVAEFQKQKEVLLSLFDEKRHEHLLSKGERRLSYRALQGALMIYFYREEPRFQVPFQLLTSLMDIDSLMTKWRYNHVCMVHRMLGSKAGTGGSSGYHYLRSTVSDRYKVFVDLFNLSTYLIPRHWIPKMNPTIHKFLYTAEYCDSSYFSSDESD

SMILES: Brc1ccc2[nH]c(-c3cnc[nH]3)cc2c1 [Compound 6, 5-bromo-2-(1H-imidazol-5-yl)-1H-indole]
IC50 [1, 6]: 30000 nM

SMILES: Brc1ccc2[nH]c(-c3cncn3Cc3ccccc3)cc2c1 [Compound 9a, 2-(1-benzyl-1H-imidazol-5-yl)-5-bromo-1H-indole]
increase in potency versus compound 6 ([1]; IDO1 IC50, versus compound 6): two-fold

SMILES: COc1ccc(Cn2cncc2-c2cc3cc(Br)ccc3[nH]2)cc1 [Compound 9d, 5-bromo-2-(1-(4-methoxybenzyl)-1H-imidazol-5-yl)-1H-indole]
IC50 [1, 6]: 21000 nM
EC50 [2, 7]: 4300 nM

The next lines start with the values.

IC50 [3]: 158000 nM
SMILES: Oc1ccccc1-c1cncn1Cc1cc2cc(Br)ccc2[nH]1 [Compound 10c, 2-(1-((5-bromo-1H-indol-2-yl)methyl)-1H-imidazol-5-yl)phenol]

IC50 ([1]; recombinant human IDO1): 310 nM
IC50 [1, 6]: 309 nM
Tissue Concentration Plasma Mean ([4]; 20 mg/kg IP, 0.25 hr): 1880 ng/mL
Tissue Concentration Plasma Mean ([4]; 20 mg/kg IP, 0.5 hr): 1840 ng/mL
Tissue Concentration Plasma Mean ([4]; 20 mg/kg IP, 1 hr): 1410 ng/mL
Tissue Concentration Plasma Mean ([4]; 20 mg/kg IP, 2 hr): 562 ng/mL
Tissue Concentration Plasma Mean ([4]; 20 mg/kg IP, 4 hr): 133 ng/mL
Tissue Concentration Plasma Mean ([4]; 20 mg/kg IP, 6 hr): BQL
Tissue Concentration Plasma Mean ([4]; 20 mg/kg IP, 8 hr): BQL
AUC(0-inf) ([4]; mouse, 20 mg/kg IP, Brain): 14200 ng·h/mL
AUC(0-t) ([4]; mouse, 20 mg/kg IP, Brain): 9870 ng·h/mL
Cmax ([4]; mouse, 20 mg/kg IP, Brain): 4020 ng/mL
Tmax ([4]; mouse, 20 mg/kg IP, Brain): 30 min
half-life ([4]; mouse, 20 mg/kg IP, Brain): 142 min
AUC(0-inf) ([4]; mouse, 20 mg/kg IP, Plasma): 2920 ng·h/mL
AUC(0-t) ([4]; mouse, 20 mg/kg IP, Plasma): 2910 ng·h/mL
Cmax ([4]; mouse, 20 mg/kg IP, Plasma): 1880 ng/mL
Tmax ([4]; mouse, 20 mg/kg IP, Plasma): 15 min
half-life ([4]; mouse, 20 mg/kg IP, Plasma): 49.8 min
concentration at 0.25 h ([4]; mouse, brain, ip, 20 mg/kg, 20 mg/kg IP, 0.25 hr, read-out: Tissue Concentration Brain Mean): 1660 ng/g
concentration at 0.5 h ([4]; mouse, brain, ip, 20 mg/kg, 20 mg/kg IP, 0.5 hr, read-out: Tissue Concentration Brain Mean): 4020 ng/g
concentration at 1 h ([4]; mouse, brain, ip, 20 mg/kg, 20 mg/kg IP, 1 hr, read-out: Tissue Concentration Brain Mean): 3520 ng/g
concentration at 2 h ([4]; mouse, brain, ip, 20 mg/kg, 20 mg/kg IP, 2 hr, read-out: Tissue Concentration Brain Mean): 2760 ng/g
concentration at 4 h ([4]; mouse, brain, ip, 20 mg/kg, 20 mg/kg IP, 4 hr, read-out: Tissue Concentration Brain Mean): 1370 ng/g
concentration at 6 h ([4]; mouse, brain, ip, 20 mg/kg, 20 mg/kg IP, 6 hr, read-out: Tissue Concentration Brain Mean): 552 ng/g
concentration at 8 h ([4]; mouse, brain, ip, 20 mg/kg, 20 mg/kg IP, 8 hr, read-out: Tissue Concentration Brain Mean): 510 ng/g
fraction unbound at 6 h ([5]; pooled brain homogenate in PBS (1:3 m:v), pooled mouse brain homogenized with PBS (1:3), read-out: % FU Brain): 0.0161
fraction unbound at 6 h ([5]; pooled mouse plasma, read-out: fu,plasma / % FU Plasma): 0.0117
EC50 [2]: 470 nM
EC50 [2, 7]: 467 nM
SMILES: Brc1ccc2[nH]c(Cn3cncc3-c3ccc[nH]3)cc2c1 [Compound G28, 2-((5-(1H-pyrrol-2-yl)-1H-imidazol-1-yl)methyl)-5-bromo-1H-indole]

IC50 [1, 6]: 230 nM
concentration at 0.5 h ([4]; mouse, brain, po, 20 mg/kg, 20 mg/kg PO, 0.5 Hr, individual mouse M1, read-out: Brain concentration M1): 2390 ng/mL
concentration at 0.5 h ([4]; mouse, brain, po, 20 mg/kg, 20 mg/kg PO, 0.5 Hr, individual mouse M2, read-out: Brain concentration M2): 869 ng/mL
concentration at 0.5 h ([4]; mouse, brain, po, 20 mg/kg, 20 mg/kg PO, 0.5 Hr, individual mouse M3, read-out: Brain concentration M3): 2560 ng/mL
concentration at 0.5 h ([4]; mouse, brain, po, 20 mg/kg, 20 mg/kg PO, 0.5 Hr, read-out: Brain concentration Mean): 1940 ng/mL
concentration at 2 h ([4]; mouse, brain, po, 20 mg/kg, 20 mg/kg PO, 2 Hr, individual mouse M4, read-out: Brain concentration M4): 3450 ng/mL
concentration at 2 h ([4]; mouse, brain, po, 20 mg/kg, 20 mg/kg PO, 2 Hr, individual mouse M5, read-out: Brain concentration M5): 2050 ng/mL
concentration at 2 h ([4]; mouse, brain, po, 20 mg/kg, 20 mg/kg PO, 2 Hr, read-out: Brain concentration Mean): 2750 ng/mL
Kp at 0.5 h ([4]; mouse, po, 20 mg/kg, 20 mg/kg PO, 0.5 Hr, individual mouse M1, read-out: B/P Ratio M1): 0.9
Kp at 0.5 h ([4]; mouse, po, 20 mg/kg, 20 mg/kg PO, 0.5 Hr, individual mouse M2, read-out: B/P Ratio M2): 0.5
Kp at 0.5 h ([4]; mouse, po, 20 mg/kg, 20 mg/kg PO, 0.5 Hr, individual mouse M3, read-out: B/P Ratio M3): 0.9
Kp at 0.5 h ([4]; mouse, po, 20 mg/kg, 20 mg/kg PO, 0.5 Hr, read-out: B/P Ratio Mean): 0.8
Kp at 2 h ([4]; mouse, po, 20 mg/kg, 20 mg/kg PO, 2 Hr, individual mouse M4, read-out: B/P Ratio M4): 5.5
Kp at 2 h ([4]; mouse, po, 20 mg/kg, 20 mg/kg PO, 2 Hr, individual mouse M5, read-out: B/P Ratio M5): 5
Kp at 2 h ([4]; mouse, po, 20 mg/kg, 20 mg/kg PO, 2 Hr, read-out: B/P Ratio Mean): 5.3
concentration at 0.5 h ([4]; mouse, plasma, po, 20 mg/kg, 20 mg/kg PO, 0.5 Hr, individual mouse M1, read-out: Plasma concentration M1): 2660 ng/mL
concentration at 0.5 h ([4]; mouse, plasma, po, 20 mg/kg, 20 mg/kg PO, 0.5 Hr, individual mouse M2, read-out: Plasma concentration M2): 1610 ng/mL
concentration at 0.5 h ([4]; mouse, plasma, po, 20 mg/kg, 20 mg/kg PO, 0.5 Hr, individual mouse M3, read-out: Plasma concentration M3): 2740 ng/mL
concentration at 0.5 h ([4]; mouse, plasma, po, 20 mg/kg, 20 mg/kg PO, 0.5 Hr, read-out: Plasma concentration Mean): 2330 ng/mL
concentration at 2 h ([4]; mouse, plasma, po, 20 mg/kg, 20 mg/kg PO, 2 Hr, individual mouse M4, read-out: Plasma concentration M4): 629 ng/mL
concentration at 2 h ([4]; mouse, plasma, po, 20 mg/kg, 20 mg/kg PO, 2 Hr, individual mouse M5, read-out: Plasma concentration M5): 408 ng/mL
concentration at 2 h ([4]; mouse, plasma, po, 20 mg/kg, 20 mg/kg PO, 2 Hr, read-out: Plasma concentration Mean): 519 ng/mL
EC50 [2, 7]: 250 nM
SMILES: Fc1ccc2[nH]c(Cn3cncc3-c3ccc[nH]3)cc2c1 [Compound G29, 2-((5-(1H-pyrrol-2-yl)-1H-imidazol-1-yl)methyl)-5-fluoro-1H-indole]
